Series [1] concerns NCI-H446. Description: Antitumor activity against human NCI-H446 cells assessed as inhibition of cell growth by SRB assay. The series is classed as functional, cell-based. (In general: In SRB staining, fixed cells bind dye roughly in proportion to their protein.)
The nature of series [2]: Antitumor activity against human L02 cells assessed as inhibition of cell growth by SRB assay. The series is classed as toxicity, cell-based.
Series [3] in a line: Antitumor activity against human Cisplatin/etoposide-resistant NCI-H446/EP cells assessed as inhibition of cell growth by SRB assay. The class given is functional, cell-based.
Series [4] relates to ASPC1. Description: Antitumor activity against human ASPC1 cells assessed as inhibition of cell growth by SRB assay. The class given is functional, cell-based.
The test system of series [5] is K562. Description: Antitumor activity against human K562 cells assessed as inhibition cell growth by MTT assay. The class given is functional, cell-based.
Series [6] relates to MDA-MB-231. Nature of the series: Antitumor activity against human MDA-MB-231 cells assessed as inhibition of cell growth by SRB assay. The series is classed as functional, cell-based.
The test system of series [7] is Staphylococcus aureus. Description: Antimicrobial activity against Staphylococcus aureus ATCC 29213 assessed as inhibition of microbial growth incubated for 24 hrs by microdilution method. The class given is functional, organism-based.
Series [8] relates to Staphylococcus aureus. Nature of the series: Antimicrobial activity against methicillin-resistant Staphylococcus aureus assessed as inhibition of microbial growth incubated for 24 hrs by microdilution method. The series is classed as functional, organism-based. In general terms: Dilution methods test growth across graded concentrations, often in twofold steps.
Series [9] has as its system Bacillus cereus. Description: Antimicrobial activity against Bacillus cereus ATCC 4342 assessed as inhibition of microbial growth incubated for 24 hrs by microdilution method. The series is classed as functional, organism-based.

Structures can show the parent of a compound that is named as a salt. Where only a bound is given, the exact number is not on record here.

What is called IC50 is the concentration that inhibits the measured activity by half.

Regarding `COc1cccc2c1C(=O)c1c(O)c3c(c(O)c1C2=O)C[C@@](O)(C(=O)CO)C[C@@H]3O[C@H]1C[C@H](N)[C@H](O)[C@H](C)O1` [DOXORUBICIN HYDROCHLORIDE], the IC50 in [1] stood at 0.8 µM; in series [2] it was 0.33 µM; in series [3], 11.2 µM; in series [4], 5.91 µM.
Take `CC1=CC(=O)c2c(O)cccc2[C@]12Oc1cc(O)cc(C)c1C2=O`: the IC50 in series [1], in series [2], in series [5], in [3], in series [6] and in [4] was above 50 µM in each case. Further, the Activity result in series [7], in series [8] and in [9] was “Weak_effect” throughout.
In the case of `Cc1cc(=O)c2c3c(c(O)cc2o1)[C@](O)(Cc1cc(=O)cc(O)o1)C[C@@H](O)C3`, the concentration for half-maximal inhibition (IC50) in series [1], in series [2], in series [5], in [3], in series [6] and in series [4] was above 50 µM each time.
Turning to `Cc1cc(=O)c2c(C/C=C/[C@@H](O)Cc3cc(O)cc(=O)o3)cc(O)cc2o1`, the IC50 in [1] was above 50 µM; in series [2], above 50 µM; in [5] it was above 50 µM; in series [3] it was above 50 µM; in [6], above 50 µM; in series [4], below 50 µM.
Take `CC1=CC(=O)c2c(O)cccc2[C@@]12Oc1cc(O)cc(C)c1C2=O`: the IC50 in [1] is 2.26 µM; in series [2], above 50 µM; in series [5], above 50 µM; in [3], below 50 µM; in [6], above 50 µM; in series [4] it was above 50 µM. Further, the Activity result in [7], in series [8] and in series [9] was “Weak_effect” in each case.
Take `Cc1cc(=O)c2c3c(c(O)cc2o1)/C(=C/c1cc(=O)cc(O)o1)C[C@@H](O)C3`: the IC50 in [1], in series [2], in [5], in [3], in series [6] and in series [4] was above 50 µM in each case.
Take `Cc1cc(=O)c2c(CCCC(=O)Cc3cc(O)cc(=O)o3)cc(O)cc2o1`: the IC50 was below 50 µM in series [1]; below 50 µM in [2]; above 50 µM in [5]; above 50 µM in [3]; above 50 µM in series [6]; above 50 µM in [4]. In addition, the Activity entry in series [7], in series [8] and in series [9] was “Weak_effect” each time.
